Test results as given in patent US20230020036A1, “TREATMENT OF EPILEPTIC CONDITIONS WITH GABAA RECEPTOR MODULATORS” (NEUROCYCLE THERAPEUTICS, INC., priority 2019, published 2023).
Values joined by “and” are separate entries in the source; they are usually repeats but may differ in a detail not shown here. Equal entries are not always repeated. “Also recorded” adds a separate entry of the source.

Test system: Scn1a+/- heterozygous knockout mice ([129xB]F1.Scn1a+/-), heat-induced seizures
Experiment: Hyperthermia-induced seizure study in Scn1a+/- heterozygous knockout mice
Assay type: in vivo, mouse
Set-up: Temp Change: unit not given here
Conditions: for amount of seizures relative to administration of vehicle: Table 10 summary; for performance compared with the clobazam positive control: clobazam 10 mg/kg; for efficacy at preventing heat-induced seizures: summary of the seizure study, FIG. 13
Source text: Reason for selection of species: The Scn1a^+/− knockout mouse ([129xB]F1. Scn1a^+/−) is a model subject of DS with a high translational value.
Between P14 and 16, Scn1a^+/− heterozygous knockout mice are randomly assigned to treatment groups (n=7 males, 7 females/treatment group). The Scn1a^+/− knockout mouse model was chosen because it is an art accepted animal model for epileptic conditions, including for Dravet Syndrome. Treatments are GABAA receptor modulator 1 (“Compound 1” as a phosphate salt at 0.1, 0.3, 1.0 mg/kg), GABAA receptor modulator 2 (“Compound 2” at 3, 10, 30, 100 mg/kg), vehicle, or Clobazam (“CBZ”) (10 mg/kg; positive control).
The GABAA receptor modulators were administered intraperitoneally (i.p.) using a 0.5 or 1-ml plastic syringe fitted with a 27 or 30 gauge 0.5″-long beveled needle.
Animals received 10 mL of formulation per kg of body weight as measured on the day of experiment.
In order to verify the dose concentration, mice were dosed with a test article or control and placed into individual housing cages. A temperature probe was gently inserted into the mouse's rectum and secured by taping the probe's wire to the mouse's tail with the tag end on the mouse's dorsal side. For each group, the insertion of the probe was as follows: • a. For mice administered CBZ, five (5) mins passed before insertion of the probe in order to allow 20-30 min pretreatment time when the state of hyperthermia reached. • b. For mice administered Compound 1, thirty-five (35) mins passed before insertion of the probe in order to allow 50-60 min pretreatment time when the state of hyperthermia is reached. • c. For mice administered […], five (5) mins passed before insertion of the probe in order to allow 20-30 min pretreatment time when the state of hyperthermia reached.
Each mouse was allowed to acclimate to the temperature probe for five (5) minutes before recording the baseline temperature. FIGS. 1-3 depict the starting temperatures of the female mice, the male mice, and the average starting temperatures of all mice prior to inducing the heat-induced seizures.
FIGS. 4-6 depict the final core body temperature of the female mice, the male mice, and the average final core body temperature of all mice after heating. FIGS. 7-9 illustrate the total temperature change for the female mice, the male mice, and average of all mice; while FIGS. 10-12 depict the average temperature change per minute for the female mice, the male mice, and average of all mice. The mouse's body temperature was maintained at 42.5° C. for 3 mins. If no seizure occurred, the mouse was considered seizure-free.

[1] = Clobazam 10 mg/kg i.p., 30 minute pretreatment, individual animals, female mice
[2] = Clobazam 10 mg/kg i.p., 30 minute pretreatment, individual animals, male mice
[3] = 0.1 mg/kg i.p., 60 minute pretreatment, individual animals, female mice
[4] = 0.1 mg/kg i.p., 60 minute pretreatment, individual animals, male mice
[5] = 0.3 mg/kg i.p., 60 minute pretreatment, individual animals, female mice
[6] = 0.3 mg/kg i.p., 60 minute pretreatment, individual animals, male mice
[7] = 3 mg/kg i.p., 30 minute pretreatment, individual animals, female mice
[8] = 3 mg/kg i.p., 30 minute pretreatment, individual animals, male mice
[9] = Compound 2 30 mg/kg, 30 minute pretreatment, individual animals, female mice
[10] = Compound 2 30 mg/kg, 30 minute pretreatment, individual animals, male mice
[11] = Compound 2 100 mg/kg, 30 minute pretreatment, individual animals, female mice
[12] = Compound 2 100 mg/kg, 30 minute pretreatment, individual animals, male mice

CN1C(=O)CC(=O)N(c2ccccc2)c2cc(Cl)ccc21 [Clobazam, reference compound]
Total With No Seizure (Clobazam 10 mg/kg i.p., 30 minute pretreatment): 38%
End Temp [1]: 42.3 °C and 42 °C and 42.2 °C and 42.7 °C (2×) and 42.6 °C (4×) and 42.5 °C (2×) and 42.9 °C
Observations [1]: Tonic-clonic, squeek; also recorded: seizure free, 3 min hold; also recorded: Tonic-clonic on the onset; also recorded: Tonic-clonic, HLE
End Temp [2]: 41.9 °C and 42.6 °C (2×) and 42.5 °C (3×) and 42.9 °C and 42.8 °C and 41.8 °C and 42 °C and 41.7 °C and 42.1 °C
Observations [2]: seizure free, 3 min hold; also recorded: Tonic-clonic seizure; also recorded: Tonic-clonic seizure,; also recorded: Tonic-clonic, squeek; also recorded: Tonic-clonic on the onset
End Temperature (summary, 10 mg/kg (n = 24)): 42.42 °C
Seizure free % (summary, 10 mg/kg (n = 24)): 38%
Temp Change (summary, 10 mg/kg (n = 24)): 7.60
Temp Change/min (summary, 10 mg/kg (n = 24)): 0.53

CC(C)(O)c1cnn2c(-c3ccc(F)c(-c4c(F)cccc4C#N)c3)cnc2n1 [Compound 1]
Total With No Seizure (0.1 mg/kg i.p., 60 minute pretreatment): 6%
End Temp [3]: 41.9 °C and 41.8 °C and 41.6 °C and 42 °C and 41.7 °C and 42.8 °C and 41.4 °C and 41.2 °C
Observations [3]: Tonic-clonic, squeek; also recorded: Seizure free, 3 min hold
End Temp [4]: 42.6 °C and 41.8 °C and 40.8 °C and 42 °C and 42.1 °C and 41.5 °C and 42.2 °C and 41.6 °C
Observations [4]: Tonic-clonic, seizure; also recorded: Tonic-clonic, squeek
Total With No Seizure (0.3 mg/kg i.p., 60 minute pretreatment): 33%
End Temp [5]: 41.7 °C and 41.4 °C and 42.3 °C (2×) and 42.5 °C and 42.8 °C and 42.1 °C and 42.2 °C and 42.7 °C
Observations [5]: Tobic-clonic, squeek, HLE; also recorded: Seizure free, 3 min hold; also recorded: tonic-clonic, squeek, HLE
End Temp [6]: 41.4 °C and 42.4 °C (2×) and 42.8 °C and 41.9 °C and 42.2 °C and 42.6 °C (2×) and 43 °C
Observations [6]: Tonic,-clonic, squeek; also recorded: Tonic-clonic, squeek; also recorded: Seizure free, 3 min hold
Total With No Seizure (1.0 mg/kg i.p., 60 minute pretreatment): 36%
Observations (1.0 mg/kg i.p., 60 minute pretreatment, individual animals): Tonic-clonic seizure,; also recorded: seizure free, 3 min hold; also recorded: Tonic-clonic seizure; also recorded: Tonic-clonic, Squeek
End Temp (1.0 mg/kg i.p., 60 minute pretreatment, individual animals, female mice): 42.2 °C (2×) and 42.8 °C (2×) and 42.4 °C and 42.5 °C (3×) and 42.3 °C and 42.9 °C and 42.1 °C
End Temp (1.0 mg/kg i.p., 60 minute pretreatment, individual animals, male mice): 41.9 °C and 42.5 °C (2×) and 42.9 °C and 42.3 °C and 42.2 °C and 42.8 °C (2×) and 41.5 °C and 41.3 °C and 42.6 °C
amount of seizures relative to administration of vehicle: reduced the amount of seizures
performance compared with the clobazam positive control: performed at least as well as the clobazam positive control
efficacy at preventing heat-induced seizures: effective at preventing heat-induced seizures
End Temperature (summary, 0.1 mg/kg (n = 16)): 41.81 °C
Seizure free % (summary, 0.1 mg/kg (n = 16)): 6%
Temp Change (summary, 0.1 mg/kg (n = 16)): 6.66
Temp Change/min (summary, 0.1 mg/kg (n = 16)): 0.52
End Temperature (summary, 0.3 mg/kg (n = 18)): 42.29 °C
Seizure free % (summary, 0.3 mg/kg (n = 18)): 33%
Temp Change (summary, 0.3 mg/kg (n = 18)): 7.15
Temp Change/min (summary, 0.3 mg/kg (n = 18)): 0.48
End Temperature (summary, 1.0 mg/kg (n = 22)): 42.39 °C
Seizure free % (summary, 1.0 mg/kg (n = 22)): 36%
Temp Change (summary, 1.0 mg/kg (n = 22)): 7.05
Temp Change/min (summary, 1.0 mg/kg (n = 22)): 0.46

C#Cc1ccc2c(c1)C(c1ccccn1)=NCc1c(-c3nc(CC)no3)ncn1-2 [Compound 2]
Total With No Seizure (3 mg/kg i.p., 30 minute pretreatment): 7%
End Temp [7]: 42.6 °C and 41.8 °C and 41.7 °C (2×) and 42.2 °C and 42.4 °C and 41.4 °C
Observations [7]: Seizure free, 3 min hold; also recorded: Tonic-clonic, squeek
End Temp [8]: 41.3 °C (2×) and 41.7 °C and 42.1 °C and 41.8 °C and 42 °C and 42.5 °C
Observations [8]: Tonic-clonic, squeek; also recorded: Tonic-clonic on the onset
prevention of seizures (100 mg/kg dose, n=8): completely preventing seizures in each animal
dose dependence of seizure prevention (3, 10, 30, 100 mg/kg): prevented seizures in a dose-dependent fashion
Total With No Seizure (Compound 2 10 mg/kg i.p., 30 minute pretreatment): 50%
Observations (Compound 2 10 mg/kg i.p., 30 minute pretreatment, individual animals): Tonic-clonic, squeek
End Temp (Compound 2 10 mg/kg i.p., 30 minute pretreatment, individual animals, female mice): 42.7 °C (2×) and 42.8 °C (2×) and 42.6 °C and 42.1 °C and 42.5 °C
End Temp (Compound 2 10 mg/kg i.p., 30 minute pretreatment, individual animals, male mice): 42.5 °C (3×) and 42.8 °C and 42 °C and 40 °C and 42.7 °C
Total With No Seizure (Compound 2 30 mg/kg, 30 minute pretreatment): 73%
End Temp [9]: 42.5 °C and 41.5 °C and 42.8 °C (2×) and 42.7 °C (3×) and 42.6 °C
Observations [9]: seizure free, 3 min hold; also recorded: Tonic-clonic seizure
Temp Change [9]: 9.1 and 5.3 and 6.3 and 6.2 and 7.9 and 7.2 and 6.6 and 7.4
Temp Change/min [9]: 0.51 and 0.48 (2×) and 0.41 and 0.46 and 0.55 and 0.39 and 0.35
End Temp [10]: 42.5 °C and 42.8 °C and 42.6 °C and 43 °C and 42.7 °C (2×) and 41.6 °C
Observations [10]: Tonic-clonic, squeek; also recorded: Seizure free, 3 min hold
Temp Change [10]: 7.3 and 6.8 and 7.8 and 7.5 (2×) and 9.6 and 7
Temp Change/min [10]: 0.66 and 0.49 and 0.41 and 0.54 and 0.53 and 0.50 and 0.63
Total With No Seizure (Compound 2 100 mg/kg, 30 minute pretreatment): 100%
End Temp [11]: 42.9 °C and 42.7 °C (2×) and 42.5 °C
Observations [11]: Seizure free, 3 min hold
Temp Change [11]: 8.2 and 7.4 and 7.7 and 8.5
Temp Change/min [11]: 0.59 and 0.53 and 0.33 and 0.50
End Temp [12]: 42.6 °C (2×) and 42.7 °C and 42.5 °C
Observations [12]: Seizure free, 3 min hold
Temp Change [12]: 7.4 and 7.2 and 9.7 and 7.7
Temp Change/min [12]: 0.31 and 0.36 and 0.54 and 0.29
amount of seizures relative to administration of vehicle: reduced the amount of seizures
performance compared with the clobazam positive control: performed at least as well as the clobazam positive control
efficacy at preventing heat-induced seizures: effective at preventing heat-induced seizures
End Temperature (summary, 3 mg/kg (n = 14)): 41.89 °C
Seizure free % (summary, 3 mg/kg (n = 14)): 7%
Temp Change (summary, 3 mg/kg (n = 14)): 6.61
Temp Change/min (summary, 3 mg/kg (n = 14)): 0.45
End Temperature (summary, 10 mg/kg (n = 14)): 42.37 °C
Seizure free % (summary, 10 mg/kg (n = 14)): 50%
Temp Change (summary, 10 mg/kg (n = 14)): 7.09
Temp Change/min (summary, 10 mg/kg (n = 14)): 0.47
End Temperature (summary, 30 mg/kg (n = 15)): 42.55 °C
Seizure free % (summary, 30 mg/kg (n = 15)): 73%
Temp Change (summary, 30 mg/kg (n = 15)): 7.30
Temp Change/min (summary, 30 mg/kg (n = 15)): 0.49
End Temperature (summary, 100 mg/kg (n = 8)): 42.60 °C
Seizure free % (summary, 100 mg/kg (n = 8)): 100%
Temp Change (summary, 100 mg/kg (n = 8)): 8.00
Temp Change/min (summary, 100 mg/kg (n = 8)): 0.37
